Earlier results as cited in US7223553B2, “Immunoassays for everolimus” (priority 2004, dated 2007).
Like-named read-outs stand apart in the source and are kept apart here.

How the values were obtained:
[1] = heart transplant patients, first year post-transplant
[2] = kidney transplantation; consistent with efficacy while minimizing adverse effects

Everolimus trough levels ([1]; 1.5 mg/day): 5.2 ± 3.8 ng/mL | Everolimus trough levels ([1]; 3 mg/day): 9.4 ± 6.3 ng/mL
Substance: 40-O-(2-hydroxyethyl)-rapamycin [Everolimus]
Therapeutic concentration [2]: 3 to 15 ng/mL
